Experimental findings from patent publication US5028590A, “Derivatives of A54145 cyclic peptides” (priority 1988, dated 1991) are described below.

Bounds are passed on as bounds.

Data set [1] deals with Staphylococcus aureus X1.1. The experiment in a line: Agar-dilution MIC, Staphylococcus aureus X1.1. The format is cell-based. How it is done: (§1) The MIC's in Table IV were determined by conventional agar-dilution assays.
The subject of data set [2] is Staphylococcus aureus V41. Description: Agar-dilution MIC, Staphylococcus aureus V41. Type of data set: cell-based. How it is done:
as §1

The subject of data set [3] is Staphylococcus aureus X400. Description: Agar-dilution MIC, Staphylococcus aureus X400. The format is cell-based. How it is done: as §1
Data set [4] deals with Staphylococcus aureus S13E. The note with it: agar dilution. Here is the method:
as §1
Background: In agar dilution the substance is mixed into plates at graded concentrations.

Data set [5] deals with Staphylococcus epidermidis EPI1. Type of data set: cell-based. The note with it: agar dilution. Here is the method:
as §1

For data set [6], the system named is Streptococcus pneumoniae Park 1. The format is cell-based. The conditions noted are these: agar dilution. How it is done: as §1
In data set [7] the test system is Staphylococcus epidermidis 222. The experiment in a line: Agar-dilution MIC, Staphylococcus epidermidis 222. Type of data set: cell-based.
The test system of data set [8] is Streptococcus pyogenes C203. Description: Agar-dilution MIC, Streptococcus pyogenes C203. The format is cell-based. Here is the method: as §1
Data set [9] relates to Streptococcus sp. group D X66. The experiment in a line: Agar-dilution MIC, Streptococcus sp. group D X66. Type of data set: cell-based. How it is done: as §1
Data set [10] concerns Streptococcus sp. group D 2041. Description: Agar-dilution MIC, Streptococcus sp. group D 2041. The format is cell-based. How it is done:
as §1

In the next data set the test system is Streptococcus pyogenes. Description: In vivo protection of experimentally infected mice (ED50). The conditions noted are these: administered subcutaneously, doses given 1 and 4 hours postinfection. Here is the method: The formula 1a compounds have shown in vivo antimicrobial activity against experimentally-induced infections in laboratory animals. When two doses of test compound were administered to mice experimentally infected with Streptococcus pyogenes or Staphylococcus aureus, the activity observed was measured as an ED50 value [effective dose in mg/kg to protect 50% of the test animals: see Warren Wick, et al., J. Bacteriol. 81, 233-235 (1961)].

A short description of data set [11]: Relative toxicity, median lethal dose in mice. The format is in vivo. The conditions noted are these: administered IP in mice. The source says:
Table VI summarizes the relative toxicity of illustrative formula 1a compounds.
^a When administered IP in mice

A word on the MIC: it is the lowest concentration that inhibits growth of the organism. High values mean a less susceptible organism, low ones a more susceptible organism. On to “NTrp -(n-Dodecanoyl)-A54145A Nucleus [Compound 4]”, for which the MIC came out at 1 µg/mL in [1]; 1 µg/mL in data set [2]; 1 µg/mL in data set [3]; 2 µg/mL in data set [4]; 1 µg/mL in data set [5]; 2 µg/mL in [6]. Moreover, the MIC in [7] was 1 µg/mL; in data set [8], 0.125 µg/mL; in data set [9], 4 µg/mL; in data set [10], 8 µg/mL. Further, the “ED50 vs. Streptococcus pyogenes” value in the data set on Streptococcus pyogenes is 1.15 mg/kg × 2. In addition, the “Median Lethal Dose” value in [11] stood at 321 mg/kg.
As for “NTrp -(n-Undecanoyl)-A54145A Nucleus [Compound 2]”, the MIC in data set [1] came out at 2 µg/mL; in [2], 4 µg/mL; in [3], 4 µg/mL; in data set [4], 4 µg/mL; in [5], 2 µg/mL; in data set [6], 2 µg/mL. For the same substance, the MIC in data set [7] amounted to 2 µg/mL; in [8], 0.5 µg/mL; in [9], 16 µg/mL; in data set [10], 32 µg/mL. For the same substance, the “ED50 vs. Streptococcus pyogenes” value with Streptococcus pyogenes came to 1.65 mg/kg × 2. The “Median Lethal Dose” value in [11] is greater than 520 mg/kg.
Regarding “NTrp -(n-Nonanoyl)-A54154A Nucleus [Compound 6]”, the MIC in data set [1] was 32 µg/mL; in data set [2], 32 µg/mL; in [3] it was 32 µg/mL; in [4] it was 32 µg/mL; in data set [5] it was 16 µg/mL; in [6], 64 µg/mL. The MIC came out at 16 µg/mL in data set [7], 4 µg/mL in data set [8] and 128 µg/mL in data set [9]. For the same substance, in the data set on Streptococcus pyogenes, the “ED50 vs. Streptococcus pyogenes” value stood at 10.6 mg/kg × 2. In addition, the “Median Lethal Dose” value in data set [11] was greater than 510 mg/kg.
On to “NTrp -(n-Decanoyl)-A54145F Nucleus [Compound 10]”, for which the MIC in data set [1] worked out at 16 µg/mL; in data set [2] it was 16 µg/mL; in [3], 16 µg/mL; in data set [4], 16 µg/mL; in [5], 16 µg/mL; in data set [6] it was 32 µg/mL. For the same substance, the MIC amounted to 16 µg/mL in [7], 4 µg/mL in data set [8], 128 µg/mL in data set [9] and 128 µg/mL in [10]. In the data set with Streptococcus pyogenes, the “ED50 vs. Streptococcus pyogenes” value was 10.8 mg/kg × 2. The “Median Lethal Dose” value in data set [11] was greater than 505 mg/kg.
Turning to “NTrp -(n-Tetradecanoyl)-A54145 Nucleus [Compound 26]”, the MIC in data set [1] was 0.25 µg/mL; in [2], 0.25 µg/mL; in data set [3] it was 0.5 µg/mL; in data set [4], 0.25 µg/mL; in data set [5] it was 0.5 µg/mL; in [6], 0.125 µg/mL. Also, the MIC in [7] worked out at 0.5 µg/mL; in data set [8] it was 0.06 µg/mL; in data set [9], 2 µg/mL; in [10], 4 µg/mL.
